The text below walks through data of ChEMBL document CHEMBL1130498, “Synthesis of conformationally constrained analogues of BRL-32872. Determination of stereochemistry and related pharmacological properties” (Bioorg Med Chem Lett, 1997).

“And” between values parts separate entries of the source, which are not always exact repeats. Identical values can stand only once.

The assay can be described thus: Hill coefficient was evaluated.

On to `COc1ccc(CCN2C3CC[C@@H]2[C@@H](N(C(=O)c2ccc([N+](=O)[O-])cc2)c2ccc(OC)c(OC)c2)C3)cc1OC`, for which the Hill coefficient is 1.01 and 1.18. As for `COc1ccc(CCN2C3CC[C@@H]2[C@H](N(C(=O)c2ccc([N+](=O)[O-])cc2)c2ccc(OC)c(OC)c2)C3)cc1OC`, the Hill coefficient was 1.37 and 0.93.

By Hill coefficient is commonly meant the slope factor of the fitted curve.
